# Assay results as given in ChEMBL document CHEMBL1201862, “PubChem BioAssay data set” (2004).
# The source made the active and inactive calls.
# Columns and labels:
# H9c2 = test: cells; format: functional, cell-based; conditions: Rattus norvegicus, H9c2, Myocardium;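 also: confirmatory concentration-response retest of ultra-high-throughput screening hits for modulation of myocardial damage; cell death induced by hydrogen peroxide oxidative stress; compound pretreatment for 60 min then peroxide exposure for 2 h; potency is for protecting the cells against peroxide damage rather than for killing them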
# [1] = molecular target: T1, Ubiquitin-conjugating enzyme E2 N (Homo sapiens, UniProt P61088); format: functional;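 also: Dose-response confirmation in a TR-FRET assay detecting UBC13-driven polyubiquitin chain formation, inhibition measured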
# T1 sequence (P61088 whole entry): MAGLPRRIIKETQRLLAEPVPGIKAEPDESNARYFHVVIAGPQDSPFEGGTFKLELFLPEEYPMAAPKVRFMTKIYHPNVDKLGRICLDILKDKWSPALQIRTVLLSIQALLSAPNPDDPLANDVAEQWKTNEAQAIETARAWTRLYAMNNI
# Paired box protein Pax-8 = Paired box protein Pax-8 (Homo sapiens, UniProt Q06710); test: inhibitors of PAX8-driven TPO luciferase reporter, dose response, RMG-I cells, cherry-pick (AID 687027); format: functional, cell-based;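 also: luciferase reporter driven by Pax8 target thyroperoxidase promoter measured by SteadyGlo luminescence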
# Chain of Paired box protein Pax-8 (Q06710 whole entry): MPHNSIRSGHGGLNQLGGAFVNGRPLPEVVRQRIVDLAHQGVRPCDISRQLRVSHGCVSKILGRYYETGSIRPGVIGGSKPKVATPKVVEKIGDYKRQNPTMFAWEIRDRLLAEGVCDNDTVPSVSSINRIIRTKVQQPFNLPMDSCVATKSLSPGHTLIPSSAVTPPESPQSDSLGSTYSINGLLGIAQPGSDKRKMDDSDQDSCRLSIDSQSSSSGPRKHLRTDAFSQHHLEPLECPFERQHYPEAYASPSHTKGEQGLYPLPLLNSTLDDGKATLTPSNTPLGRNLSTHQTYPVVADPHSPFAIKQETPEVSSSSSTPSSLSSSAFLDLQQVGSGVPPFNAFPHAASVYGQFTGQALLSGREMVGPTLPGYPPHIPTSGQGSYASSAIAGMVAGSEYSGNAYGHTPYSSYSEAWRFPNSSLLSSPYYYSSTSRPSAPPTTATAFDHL
# P388 = test: cells; format: functional; conditions: Mus musculus
# P388/ADR = test: cells; format: functional; conditions: Mus musculus
# SN12K1 = test: cells; format: functional; conditions: Homo sapiens
# cells [2] = format: functional
# [3] = NIH-3T3 fibroblast cytotoxicity, dose response, cytotoxicity control, cell-based, fluorescence, Alamar Blue, secondary assay (AID 2327); format: functional;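 also: NIH-3T3 mouse fibroblasts cultured with fluconazole at 8 µg/mL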
# [4] = C. albicans growth with fluconazole, confirmation, fluorescence, retest (AID 2467); format: functional, cell-based
# Streptokinase A = molecular target: T2, Streptokinase A (Streptococcus pyogenes serotype M1, UniProt P10520); test: S. pyogenes streptokinase expression inhibitors, potency, dose response, plasminogen activation absorbance, OD405 (AID 1914); format: functional, Streptococcus pyogenes M1 GAS;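 also: secreted streptokinase activity via plasminogen activation per viability signal from cell pellet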
# T2 sequence (P10520 whole entry): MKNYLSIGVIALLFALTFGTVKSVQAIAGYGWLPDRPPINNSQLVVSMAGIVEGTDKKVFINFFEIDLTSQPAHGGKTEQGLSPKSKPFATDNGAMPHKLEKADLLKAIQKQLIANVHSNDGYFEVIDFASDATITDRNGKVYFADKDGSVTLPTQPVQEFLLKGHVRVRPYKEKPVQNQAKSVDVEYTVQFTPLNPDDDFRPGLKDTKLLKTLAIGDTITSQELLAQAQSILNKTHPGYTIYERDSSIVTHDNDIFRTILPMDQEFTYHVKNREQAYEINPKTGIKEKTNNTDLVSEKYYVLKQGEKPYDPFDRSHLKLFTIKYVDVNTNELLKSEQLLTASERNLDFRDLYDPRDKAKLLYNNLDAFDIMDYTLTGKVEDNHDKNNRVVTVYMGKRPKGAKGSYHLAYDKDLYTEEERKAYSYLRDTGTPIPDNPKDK
# [5] = test system: Streptococcus sp. 'group A'; test: growth inhibition of control SK(-) GAS strain, dose response, counter-screen for streptokinase expression inhibitor project, luminescence, kanamycin, BacTiterGlo, confirmation (AID 1900); format: functional, organism-based
# INS1 = test: beta cell apoptosis inhibitors, cytokine rescue, dose response, luminescence, retest (AID 449756); format: functional, cell-based; conditions: Rattus norvegicus;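 also: cell death triggered by IL-1 beta plus TNF-alpha plus IFN-gamma mixture; protective hits raise ATP signal compared with cytokine alone wells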
# Streptococcus = test: Group A Streptococcus viability loss, dose response, counter-screen for streptokinase expression inhibitor project, luminescence, BacTiterGlo (AID 1915); format: functional, organism-based;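 also: potency for reduction of bacterial viability or growth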
# cells [6] = format: functional, cell-based
# cells [7] = format: functional, cell-based; remark: listed apart in the source
# Vero = test: cells; format: functional; conditions: Chlorocebus sabaeus
# [8] = inhibitors of firefly luciferase expression or activity, dose response, H4 neuroglioma cells, luminescence (AID 1990); format: functional, cell-based
# [9] = inhibitors of SNCA 5'UTR-driven reporter translation, confirmation, H4 neuroglioma cells, luminescence (AID 1988); format: functional, cell-based
# [10] = Luminescence Cell-Based Dose Response HTS to Identify Inhibitors of 5'UTR Stem-Loop Driven Prion Protein mRNA Translation in H4 Neuroglioblastoma Cells. [Related pubchem assays: 1827 (Project Summary), 1813 (Primary HTS)]; format: functional
# [11] = HEp-2 cell cytotoxicity, dose response, cytotoxicity control for RSV inhibitor project, HTS (AID 2410); format: functional; conditions: human respiratory syncytial virus
compound,measurement,setting,value
CCOC(=O)N1CCC(NC(=O)c2cc3c(-c4ccccc4F)nn(C)c3s2)CC1,IC50,H9c2,10.6 µM (active)
C/C(=N\NC(=O)CSCc1ccc([N+](=O)[O-])cc1)c1cccc(Br)c1,IC50,[1],> 20 µM (inactive)
Oc1nnc(Cc2ccccn2)c2ccccc12,IC50,H9c2,39.4 µM (inactive)
CN(CCc1cn[nH]c1)Cc1nc(C(c2ccccc2)c2ccccc2)no1,AC50,Paired box protein Pax-8,65 µM (active)
CCNC(=O)C(C)C1CCC2(C)C=CC(=O)C(C)=C2C1O (stereo not drawn),GI50,P388,> 100 µM (inactive)
same,GI50,P388/ADR,> 100 µM (inactive)
same,GI50,SN12K1,> 100 µM (inactive)
[N-]=[N+]=CC(=O)CCC(N)C(=O)O (stereo not drawn),GI50,P388,0.0991 µM (active)
same,GI50,P388/ADR,0.112 µM (active)
same,GI50,SN12K1,0.871 µM (active)
COc1cc2[nH]c(Cl)c([N+](=O)[O-])c2cc1OC,IC50,cells [2],23.1 µM (active)
O=C(CN1C(=O)COc2ccccc21)NCCCN1CCc2ccccc2C1,EC50,[3],> 150 µM (inactive)
same,EC50,[4],> 38 µM (not active)
COc1ccc(NCc2nnc(O)c3ccccc23)cc1,IC50,H9c2,> 79 µM (inactive)
O=C(O)c1ccc(NS(=O)(=O)/C=C/c2ccccc2)cc1O,IC50,cells [2],16.6 µM (active)
O=C(NCCCCCCNC(=O)n1cc(F)c(=O)[nH]c1=O)NCCCOCCOCCOCCOCCOCCOCCOCCOCCOCCOCCOCCOCCOCCOCCOCCOCCOCCOCCOCCOCCOCCCNC(=O)C(O)C(O)C(O)C(O)CO (stereo not drawn),GI50,P388,0.879 µM (active)
same,GI50,P388/ADR,0.492 µM (active)
same,GI50,SN12K1,6.15 µM (inactive)
C/C(=N\NC(=[Se])N(C)C)c1ccccn1,GI50,P388,< 0.01 µM (active)
same,GI50,P388/ADR,< 0.01 µM (active)
same,GI50,SN12K1,< 0.01 µM (active)
O=C1c2ccccc2NC(c2cnc3ccccc3n2)N1O (stereo not drawn),EC50,[3],> 160 µM (inactive)
same,EC50,[4],> 38 µM (not active)
Cc1cc(C)nc(N/N=C/c2cc(Br)ccc2O)n1,EC50,Streptokinase A,> 150 µM (not active)
same,EC50,[5],8.51 µM (active)
same,AC50,INS1,3.35 µM (active)
same,EC50,Streptococcus,146 µM (active)
same,EC50,cells [6],7.66 µM (active)
same,EC50,cells [7],> 350 µM (not active)
O=C1OC2CC=CC1C2 (stereo not drawn),GI50,P388,> 100 µM (inactive)
same,GI50,P388/ADR,> 100 µM (inactive)
same,GI50,SN12K1,> 100 µM (inactive)
CN(C(=O)CCN1C(=O)/C(=C/c2ccc(F)cc2)SC1=S)C1CCS(=O)(=O)C1 (stereo not drawn),CC50,Vero,> 25 µM (active)
COc1ccc(C(=O)Nc2ccccc2N2CCOCC2)cc1[N+](=O)[O-],EC50,[8],> 120 µM (not active)
same,EC50,[9],> 120 µM (not active)
same,EC50,[10],> 120 µM (not active)
Cn1c(=O)[nH]c(=O)c2c1nc(Br)n2CC(O)COc1ccc(Cl)cc1 (stereo not drawn),IC50,H9c2,> 79 µM (inactive)
CCNc1nc(SCc2ccccc2)nc(N2CCOCC2)n1,EC50,[8],13.1 µM (active)
same,EC50,[9],16.8 µM (active)
same,EC50,[10],> 120 µM (not active)
CCN1C(=O)/C(=C/c2nc(O)c3ccccc3n2)c2ccccc21,IC50,H9c2,> 79 µM (inactive)
Cc1cccnc1NC(=O)c1c(O)c2ccccc2n(C)c1=O,IC50,cells [2],25 µM (active)
COc1ccc(/C=N/NC(=O)c2cccnc2)cc1CN1CCc2ccccc2C1,IC50,H9c2,10.6 µM (active)
CSc1nc2ccc(S(=O)(=O)Nc3c(C)n(C)n(-c4ccccc4)c3=O)cc2s1,IC50,H9c2,> 79 µM (inactive)
CC[C@]12C=CCN3CC[C@@]4(c5ccc(OC)cc5N(C)[C@H]4[C@@](O)(C(=O)OC)[C@@H]1OC(C)=O)[C@@H]32,GI50,P388,14.5 µM (inactive)
same,GI50,P388/ADR,95.3 µM (inactive)
same,GI50,SN12K1,193 µM (inactive)
O=NN(CCCl)C(=O)Nc1ccc(Cl)c(Cl)c1,GI50,P388,49.1 µM (inactive)
same,GI50,P388/ADR,65 µM (inactive)
same,GI50,SN12K1,84.9 µM (inactive)
CCOC(=O)CN1CCS/C1=N/C#N,GI50,P388,> 100 µM (inactive)
same,GI50,P388/ADR,> 100 µM (inactive)
same,GI50,SN12K1,> 100 µM (inactive)
CCc1ccccc1N=C(S)N1CCCCCC1,EC50,[3],42.1 µM (active)
same,EC50,[4],> 38 µM (not active)
Nc1ncnc2c1nnn2C1OC(CO)C(O)C1O (stereo not drawn),GI50,P388,3.42 µM (inactive)
same,GI50,P388/ADR,8.43 µM (inactive)
same,GI50,SN12K1,1.71 µM (inactive)
CO[C@H]1[C@@H](O)[C@@H](O)O[C@@H](O[C@H]2CC[C@@]3(C)[C@H](CC[C@@H]4[C@@H]3[C@H](O)C[C@]3(C)[C@@H](C5=CC(=O)OC5)CC[C@]43O)C2)[C@@H]1O,AC50,Paired box protein Pax-8,0.809 µM (active)
O=C(Nc1ccccn1)c1cc(-c2cccnc2)nc2ccc(Br)cc12,EC50,[8],10.9 µM (active)
same,EC50,[9],8.63 µM (active)
same,EC50,[10],13.5 µM (active)
O=c1cc(-c2cccnc2)oc2c1ccc1ccccc12,IC50,H9c2,> 79 µM (inactive)
O=C(N/N=C/c1cccs1)c1cncc(Br)c1,IC50,cells [2],10.7 µM (active)
COc1cc(C(=O)N/N=C/C2CC=CCC2)cc(OC)c1OC (stereo not drawn),EC50,[8],> 120 µM (not active)
same,EC50,[9],> 120 µM (not active)
same,EC50,[10],> 120 µM (not active)
O=S(=O)(Nc1cccc(-c2cn3cccnc3n2)c1)c1ccc(Cl)cc1,AC50,Paired box protein Pax-8,43.5 µM (active)
CC1=CC(O)C(O)C2(C)C1CC1OC(=O)C(O)C3C(C)C(O)C4(O)OCC13C42 (stereo not drawn),GI50,P388,> 29 µM (inactive)
same,GI50,P388/ADR,> 625 µM (inactive)
same,GI50,SN12K1,3.63 µM (inactive)
CCOc1ncccc1C(=O)Nc1cccc(-c2nc3cccnc3s2)c1,IC50,H9c2,> 79 µM (inactive)
CC(=O)NC(c1cccs1)c1cc(Cl)c2ccccc2c1O (stereo not drawn),IC50,[1],> 20 µM (inactive)
CC(=O)c1c(C)oc2ccc(N(C(C)=O)S(=O)(=O)c3ccc(Cl)c([N+](=O)[O-])c3)cc12,EC50,[8],7.87 µM (active)
same,EC50,[9],7.59 µM (active)
same,EC50,[10],8.95 µM (active)
Cc1ccc(S(=O)(=O)N2CCOC23CCN(C(=O)c2cc(Cl)ccc2Cl)CC3)cc1,CC50,[11],16.3 µM (active)
same,EC50,cells [6],> 350 µM (not active)
same,EC50,cells [7],> 350 µM (not active)
CCOC(=O)COc1ccc2c(=O)c(-c3ccccc3OC)coc2c1,IC50,cells [2],1.45 µM (active)
O=C(c1cc2ccccc2o1)N1CCN(Cc2ccccc2)CC1,IC50,cells [2],18.8 µM (active)
CCN(Cc1ccccc1)S(=O)(=O)c1ccc(C(=O)N(CCCN(C)C)c2nc3cc4c(cc3s2)OCO4)cc1,IC50,[1],> 20 µM (inactive)
COc1ccc(C(=O)Nc2ccc[n+](-c3nc4ccccc4nc3[N-]S(=O)(=O)c3ccccc3)c2)cc1,EC50,[8],> 120 µM (not active)
same,EC50,[9],> 120 µM (not active)
same,EC50,[10],> 120 µM (not active)
CC(C)[C@](O)(C(=O)OCC1CC[N+]2([O-])CC[C@@H](O)C12)[C@H](C)O (stereo partly drawn),GI50,P388,> 364 µM (inactive)
same,GI50,P388/ADR,> 375 µM (inactive)
same,GI50,SN12K1,> 375 µM (inactive)
COc1cccc2c1[C@H]1CO[C@H]3C4C[C@H](C(=O)O)C([C@@H](C2)N13)N4C (stereo partly drawn),GI50,P388,1.08 µM (active)
same,GI50,P388/ADR,0.0906 µM (active)
same,GI50,SN12K1,0.483 µM (active)
CCCCn1c(N2CCCC2)nc2c1c(=O)[nH]c(=O)n2C,EC50,[8],> 120 µM (not active)
same,EC50,[9],> 120 µM (not active)
same,EC50,[10],> 120 µM (not active)
CCCCn1c(=O)[nH]c(=O)c2c1nc(-c1ccc(OC(F)F)c(OC)c1)n2C,EC50,[8],24.6 µM (active)
same,EC50,[9],> 120 µM (not active)
same,EC50,[10],> 120 µM (not active)
O=c1cc(CSc2ccc([N+](=O)[O-])cc2)nc2sccn12,IC50,H9c2,> 79 µM (inactive)
